# “And” between values parts separate entries of the source, which are not always exact repeats. Identical values can stand only once. Like-named read-outs stand apart in the source and are kept apart here.
# Tests used:
# [1] = test system: ARDS patients; settings: at days 28; cited from earlier work
# [2] = test system: SARS-CoV-2; settings: for body weight loss kinetic: versus vehicle mice
# [3] = test system: Citrullinated histone H3; settings: for effect on level of citrullinated histone H3 / NETosis: RNA virus infected mice, 3 mg/kg/day, versus infected vehicle group
# [4] = test system: neutrophils (DAPI-CD16+, DAPI-CD16+CXCR4-, DAPI-CD16+CXCR4+); settings: for % of neutrophils' migration decrease with plerixafor vs vehicle in response to COVID-19 serum: DAPI-CD16+CXCR4+ cells
# Procedure: Neutrophils were isolated from 6 patients of the COBRA cohort (COPD and asthma patient cohort). […] Cells were next plated in the upper compartment of a modified Boyden chamber for migration assay in 0.2 mL HBSS, containing 0.5% HSA medium. HBSS, 0.5% HSA or HBSS, 0.5% HSA+sera (10% diluted) from severe COVID-19 patients were added to the bottom compartment of each well. […] Cell identities and counts were analysed by FACS method.
# Neutrophils are isolated according to the method described by Hard, et al., (Infiltrated neutrophils acquire novel chemokine receptor expression and chemokine responsiveness in chronic inflammatory lung diseases. J. Immunol. Baltim. Md 1950. 181:8053-8067). Neutrophils were freshly isolated from blood of COPD patients over isotonic Percoll density gradient. The neutrophils were recovered, washed twice with HBSS containing 20 mM HEPES and 0.1% (w/v) BSA and resuspended in HBSS, 20 mM HEPES, and 0.1% (w/v) BSA at a cell concentration of 5×10^5 in 0.2 mL.
# Neutrophil migration was assessed using a Boyden chamber assay, using transwell inserts (pore size 8 um). A total of 5x 10^5 neutrophils cells in 0.2 mL HBSS, containing 0.5% HSA were added to the upper compartment of each well. […] HBSS, 0.5% HSA and Sera (10% diluted) from severe COVID-19 patients was added to the bottom compartment of each well.
# After neutrophils' recovery from lower chamber, FACS tubes were centrifuged 5 min, 4° C. at 500 g. Fixation and permeabilization of cells were as follow: 0.3 mL of Cytofix/Cytoperm were added for 15 min (tube are protected from light). Next, 400 μL of permeabilization buffer was added and cells were processed for centrifugation for 5 min, 4° C., 400 g. Supernatant was discarded, and cells were processed for antibody staining. Cells were incubated 40 min at 4° C. with anti-CD16 to account for all neutrophils, anti-CXCR4 to specifically account for CXCR4 expressing neutrophils. Next, 400 μL of permeabilization buffer was added, and cells were centrifuged 5 min at 4° C., 400 g. After supernatant was discarded, cells were incubated with appropriate secondary antibody for 40 min at 4° C. Finally, cells were incubated with DAPI at 4° C. After DAPI incubation (to exclude dying cells from FACS counts), 400 μL of PBS 1× were added and cells were centrifuged for 5 min at 4° C., 400 g. Cells were resuspended in 300 μL of PBS 1×. To obtain absolute values of migratory cells, flow cytometric counts for each condition were obtained during a constant predetermined time period (1 min).
# Each condition treatment was run in duplicate.
# [5] = test system: severe COVID-19 patients; settings: estimate for sample size
# Source text: Sample size is based on the following assumptions: • 1. Current estimate of the proportion of patients in ICU with critical stage COVID-19 and requiring mechanical ventilation (50% as per Bichat and Bordeaux CHUs), • 2. […] A two-sided analysis, with α=0.05.
# [6] = test system: COVID-19-related ARDS patients; settings: hypothesis; in combination with best available treatment
# Procedure: Ventilator-free days (VFDs) at 28 days are one of several organ failure-free outcome measures to quantify the efficacy of therapies and interventions. VFDs are typically defined as follows: • a. VFDs=0 if subject dies within 28 days of mechanical ventilation. • b. VFDs=28−x if successfully liberated from ventilation x days after initiation. • c. VFDs=0 if the subject is mechanically ventilated for >28 days.
# 4 groups of patients (placebo, pleri 10, pleri 20, pleri 40 μg/kg bid) will be planned.
molecule,measurement,setting,value
Tocilizumab: an anti-IL6 human monoclonal antibody marketed by Genentech under the tradename Actemra for treating rheumatoid arthritis,VFDs (ventilator-free days),[1],14.86+/−5.36
c1cc(CN2CCCNCCNCCCNCC2)ccc1CN1CCCNCCNCCCNCC1 [plerixafor],body weight loss kinetic,[2]; 10 mg/kg/day,reduced the mice body weight loss kinetic
same,body weight loss kinetic,"[2]; 10 mg/kg/day, listed as Plerixafor",significant reduction of body weight loss kinetic
same,time of death (euthanasia at body weight loss superior to 20%),"[2]; 10 mg/kg/day, versus vehicle, Wilcoxon test p<0.05",Significant difference in time of death
same,average body weight loss,"[2]; day 5 post infection, 10 mg/kg/day twice daily, vehicle 20.43%±2.88%",17.6%±1.28%
same,fraction of treated mice with improved survival,[2]; lethal dose of SARS-CoV-2,"44,44%"
same,improvement of survival,"[2]; lethal dose of SARS-CoV-2, versus vehicle",20%
same,effect on level of citrullinated histone H3 / NETosis,[3],significantly reduced
same,effect on level of citrullinated histone H3 / NETosis,[3]; listed as Plerixafor,slightly decreased
same,Mean Citrullinated Histone H3 in plasma,"[3]; day 7, RNA virus infected, 3 mg/kg/day SC, infected vehicle 2.124, non infected 0.113",1.428±0.799 absorbance at 450 nm and 1.428 absorbance at 450 nm
same,decrease of CXCR4+ neutrophils migration (mean of 6 patients),[4],75.8%±5.9%
same,migration of CXCR4 negative neutrophils (DAPI-CD16+CXCR4-),[4],no significant effect
same,migration of CXCR4 positive neutrophils (DAPI-CD16+CXCR4+),[4],strongly and reproducibly decreased
same,serum-induced recruitment of neutrophils total population (DAPI-CD16+),[4],did not significantly reduce
same,% of neutrophils' migration decrease with plerixafor vs vehicle in response to COVID-19 serum,"[4]; patient Sg3, 25 μg/mL",86.6%
same,% of neutrophils' migration decrease with plerixafor vs vehicle in response to COVID-19 serum,"[4]; patient Sg87, 25 μg/mL",72.9%
same,% of neutrophils' migration decrease with plerixafor vs vehicle in response to COVID-19 serum,"[4]; patient Sg88, 25 μg/mL",75.5%
same,% of neutrophils' migration decrease with plerixafor vs vehicle in response to COVID-19 serum,"[4]; patient Sg89, 25 μg/mL",70.0%
same,% of neutrophils' migration decrease with plerixafor vs vehicle in response to COVID-19 serum,"[4]; patient Sg92, 25 μg/mL",77.6%
same,% of neutrophils' migration decrease with plerixafor vs vehicle in response to COVID-19 serum,"[4]; patient Sg95, 25 μg/mL",72.4%
same,decrease of proportion of invasive mechanical ventilation versus placebo,[5],46%
same,proportion of invasive mechanical ventilation in patients with severe COVID-19,"[5]; reduced from 50%, 30 μg/kg/hour continuous IV 7 days",27%
same,increase of VFDs (ventilator-free days at 28 days),[6],2 days

# From patent publication US20230157994A1 (priority 2020, published 2023)
